For assay [1], the system named is Akt serine 473 (PI3K signaling pathway). The assay is described as follows: Akt phosphorylation in PBLs exposed to cl-CD95L. In kind it is cell-based, human. The following applies: peptide pre-incubation. How it is done:
Cells were lyzed for 30 minutes at 4° C. in lysis buffer (25 mM HEPES pH 7.4, 1% v/v Triton X-100, 150 mM NaCl, 2 mM EGTA supplemented with a mix of protease inhibitors (Sigma-Aldrich)). Protein concentration was determined by the bicinchoninic acid method (PIERCE, Rockford, Ill., USA) according to the manufacturer's protocol. Proteins were separated on a 12% SDS-PAGE and transferred to a nitrocellulose membrane (GE Healthcare, Buckinghamshire, England). The membrane was blocked 15 minutes with TBST (50 mM Tris, 160 mM NaCl, 0.05% v/v Tween 20, pH 7.8) containing 5% w/v dried skimmed milk (TBSTM). Primary antibody was incubated overnight at 4° C. in TBSTM. The membrane was intensively washed (TBST) and then the peroxydase-labeled anti-rabbit or anti-mouse (SouthernBiotech, Birmingham, Ala., US) was added for 45 minutes. The proteins were visualized with the enhanced chemiluminescence substrate kit (ECL, GE Healthcare).

For a further assay, the system named is Th17 cell accumulation. The assay is described as follows: In vivo administration of cl-CD95L: cell accumulation in peritoneal cavity and spleen. The following applies: 24 hours later. Details: species or system C57BL/6 mice. How it is done: Female C57BL/6 mice (Harlan UK) aged between 8-10 weeks were placed in groups of 6 and administered IP. Twenty-four hours following injection, mice were sacrificed and periteonial cavities were washed with 5 ml of PBS/2% FCS, blood smears were prepared, and spleens were collected. Blood smears and cytospins of periteonal cells (PECs) were stained with Giemsa and differential counts performed. Single cell suspensions of spleens and PECs were prepared, cell counts performed, CD4+CD62− T-cells were isolated with Miltenyi microbeads and number of cells determined by trypan blue exclusion. For experiments where animals received TAT-mCID or control peptides, 800 μg (40 mg/kg) was injected IP 2 hrs prior to administration of cl-CD95L. All mouse experiments were performed under ethical approval from the University of Nottingham local animal ethics committee and adhering to UK Home Office guidelines under the Project License 40/3412.
Single cell suspensions of spleens and PECs were prepared as described above. RNA was extracted from CD4 T-cells using phenol/chloroform. cDNA was prepared using the Promega GO-Script Reverse Transcription Kit and used in Real-Time PCR. Briefly, cDNA samples were subject to Taqman assay performed on a Roche Lightcycler. Results are reported as expression levels were calculated using the Δct method relative to HPRT.

The subject of the next assay is murin CD95. The assay is described as follows: Calcium response in mouse CD95-expressing CEM-IRC cells. It is filed as cell-based. Conditions: CEM-IRC cells reconstituted with wild type mouse CD95.
Assay [2] has as its system apoptotic signaling pathway. The assay is described as follows: CD95 apoptotic signaling pathway. It is filed as cell-based. The following applies: TAT-CID treatment.
The subject of another assay is Th17 cells. Kind of assay: Endothelial transmigration of CD4 T-cell subsets (Th17, Th1, Treg), Boyden chamber. It is filed as cell-based, human. Conditions: indicated concentrations of peptide, Boyden Chamber assay. How it is done: Animal experiments were subject to ethical review by the University of Nottingham were appropriate and conducted using PPL 40/3412 in accordance with the UK Home Office guidance and under ASPA (1986). For the generation of murine T-cell subsets, spleens were removed from C57Bl/6 mice and single cell suspensions prepared. CD4^+CD62L^+ naïve cells were isolated using Miltenyi Biotec microbeads. Naïve human CD4^+ T-cells were prepared using the Miltenyi Biotec naïve CD4^+ T-cell isolation kit II, which are sorted produced a 99% pure population of CD4^+CD45RA^+ cells. Purified cells were cultured in complete IMDM media all with α-CD3 (1 μg/ml), α-CD28 (2 μg/ml), and as follows; Th1 cells IL-12 (10 ng/ml) with α-IL-4 (10 μg/ml), Th2 cells IL-4 (10 ng/ml) and α-IFN-γ (10 μg/ml), Th17 cells Il-6 (10 ng/ml), TGF-β1 (2 ng/ml), α-IFN-γ (10 μg/ml) with α-IL-4 (10 μg/ml), and Tregs IL-2 (10 ng/ml) TGF-β1 (5 ng/ml), α-IFN-γ (10 μg/ml) and α-IL-4 (10 μg/ml). Cells were converted to T-cell subsets over five days as outlined above. All cytokines were supplied by PeproTech (London, UK). Mouse CD3 (clone 2C11); human CD3 (UCHT1); mouse CD28 (37.51); human CD28 (CD28.2); mouse IL-4 (11B11); human IL-4 (MP4-25D2); mouse IFN-γ (XMG1.2); human IFN-γ B27 came from BD Pharmigen.
After hydration of the Boyden chamber membranes containing 3 μm pore size membranes (Millipore, Molsheim, France), activated T-lymphocytes (10^6) were added to the top chamber on a confluent monolayer of HUVEC in a low serum (1%)-containing medium. […] In experiments using human sera, 500 μl of serum from either healthy donors or SLE patients was added in the lower reservoir. Cells were cultured for 24 h at 37° C. in a 5% CO2 humidified incubator. Transmigrated cells were counted in the lower reservoir by flow cytometry using a standard of 2.5×10^4 fluorescent beads (Flow-count, Beckman Coulter).
Blocking antibodies were used against E-selectin and ICAM-1 in the CHEMICON® endothelial cell adhesion assay (Millipore). Briefly, after activation of the endothelial cell layer with TNF-α, anti-mouse Ig controls, anti-E-selectin or anti-ICAM-1 were added at final concentrations of 10 μg/ml. Thereafter calcein-AM-stained T-cell subsets were incubated for 24 hours and unbound cells are washed. Cells attached to the endothelium were assessed using fluorescence plate reader.

In the case of “TAT-CID: cell penetrating peptide linking the 36-amino acid-stretch of CID (CD95 residues 175 to 210) to the HIV-TAT sequence; SEQ ID NO: 6 (RKKRRQRRRKRKEVQKTCRKHRKENQGSHESPTLNPETVAINLSD; TAT-CID)”, in assay [1], the “Akt phosphorylation at serine 473” value was “inhibited Akt phosphorylation at its serine 473”. Moreover, the “total cell counts from the PEC (accumulation of T lymphocytes)” value in the assay on Th17 cell accumulation (40 mg/kg two hours prior to IP cl-CD95L (200 ng)) was “abolished the CD95-mediated accumulation of T lymphocytes”. The “IL17 production in the peritoneal cavity” value with Th17 cell accumulation (40 mg/kg two hours prior to IP cl-CD95L (200 ng), ELISA) is reported as “prevented”. Also, the “levels of IFN-γ versus control peptide” value in the assay on Th17 cell accumulation (40 mg/kg two hours prior to IP cl-CD95L) is “no differences were noted”. Also, the “CD95-mediated Ca^2+ response” value with murin CD95 was “failed to inhibit the CD95-mediated Ca^2+ response”. The “execution of the apoptotic signaling pathway” value in assay [2] is reported as “did not affect the execution of the apoptotic signaling pathway”. For the same substance, the “CD95-mediated endothelial transmigration of Th17 cells” value in the assay on Th17 cells is given as “inhibited the CD95-mediated endothelial transmigration of human Th17 cells in a dose-dependent manner”.

For the origin of these results see patent US10189887B2, “Polypeptides and uses thereof for reducing CD95-mediated cell motility” (INSERM (INSTITUT NATIONAL DE LA SANTÉ ET DE LA RECHERCHE …, priority 2014, dated 2019).
